In data set [1] the target is T1, Apelin receptor (Homo sapiens) (UniProt P35414).
T1 sequence (whole entry): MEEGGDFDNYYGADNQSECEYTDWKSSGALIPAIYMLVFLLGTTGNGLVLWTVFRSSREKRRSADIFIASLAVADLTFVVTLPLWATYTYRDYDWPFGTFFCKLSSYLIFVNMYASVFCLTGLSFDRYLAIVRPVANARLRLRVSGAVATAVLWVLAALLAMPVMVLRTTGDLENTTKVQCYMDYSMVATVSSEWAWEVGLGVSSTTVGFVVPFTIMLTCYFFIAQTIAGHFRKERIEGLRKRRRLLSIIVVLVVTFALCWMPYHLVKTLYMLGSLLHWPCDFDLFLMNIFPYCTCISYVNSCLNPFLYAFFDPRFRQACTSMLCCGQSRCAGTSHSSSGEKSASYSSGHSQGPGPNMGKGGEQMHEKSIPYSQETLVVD
Kind of data set: Agonist activity at human APJ expressed in HEK293 cell membrane assessed as maximal efficacy for recruitment of beta-arrestin2 to receptor by BRET-based beta-arrestin2 assay relative to control. The format is functional. Particulars: filed as agonist. On the technique in general: In BRET a luciferase serves as donor, and the signal depends on an acceptor being close.

Data set [2] concerns the target T1, Apelin receptor (Homo sapiens). In words: Agonist activity at human APJ expressed in HEK293 cell membrane assessed as maximal efficacy for recruitment of PDZ-RhoGEF Galphai1 to cell membrane by BRET-based G protein dissociation assay relative to control. Particulars: filed as agonist. It is filed as functional.
For data set [3] the target is unchanged. Kind of data set: Agonist activity at human APJ expressed in HEK293 cells assessed as maximal efficacy for dissociation of G alphai1 from the G beta gamma subunit by BRET-based G protein dissociation assay relative to control. It is filed as functional, cell-based. The following applies: filed as agonist.
For data set [4], the target named is T2, Apelin receptor (Homo sapiens, UniProt P35414).
T2 sequence (P35414 whole entry): T1 sequence (whole entry)
Kind of data set: Agonist activity at human APJ expressed in HEK293 cell membrane assessed as recruitment of PDZ-RhoGEF Galpha12 to cell membrane by BRET-based G protein dissociation assay. It is filed as functional.

The test system of data set [5] is Rattus norvegicus. In words: Cardioprotective activity in Sprague-Dawley rat assessed as effect on left ventricular fractional shortening at 2 micromol/kg, sc after 3 hrs by echocardiography relative to control. It is filed as functional. The following applies: dose 2 µmol/kg.
Data set [6] is described as follows: Stability in Sprague-Dawley rat plasma assessed as half life measured upto 24 hrs by UPLC-MS analysis. The format is ADME, cell-free.
Data set [7] has as its system Rattus norvegicus. In words: Cardioprotective activity in Sprague-Dawley rat assessed as effect on cardiac output in sprague-dawley rat at 2 micromol/kg, sc after 6 hrs by echocardiography relative to control. The format is functional. Particulars: dose 2 µmol/kg.
The test system of data set [8] is Rattus norvegicus. In words: Cardioprotective activity in Sprague-Dawley rat assessed as effect on left ventricular fractional shortening at 0.2 micromol/kg, sc after 3 hrs by echocardiography. The following applies: dose 0.2 µmol/kg. The format is functional, organism-based.
Data set [9] concerns Rattus norvegicus. In words: Cardioprotective activity in Sprague-Dawley rat assessed as effect on cardiac output in sprague-dawley rat at 2 micromol/kg, sc after 3 hrs by echocardiography relative to control. It is filed as functional. The following applies: dose 2 µmol/kg.
Data set [10] is described as follows: AUC in Sprague-Dawley rat plasma at 3 mg/kg, iv by LC/MS-MS analysis. On the set-up: dose 3 mg/kg. It is filed as ADME, organism-based. Particulars: in vivo.
Data set [11] concerns Rattus norvegicus. In words: Cardioprotective activity in Sprague-Dawley rat assessed as effect on left ventricular fractional shortening at 2 micromol/kg, sc after 6 hrs by echocardiography relative to control. It is filed as functional. Particulars: dose 2 µmol/kg.
For data set [12], the system named is Rattus norvegicus. In words: Hypotensive effect in Sprague-Dawley rat assessed as decrease in blood pressure at 19.6 to 65 nmol/kg, iv relative to control. It is filed as functional. The following applies: dose 19.6-65 nmol/kg.
Data set [13] in a line: Stability in Sprague-Dawley rat plasma at 3 mg/kg, iv upto 2 hrs by LC/MS-MS analysis. The following applies: in vivo. The format is ADME, organism-based.
Data set [14] concerns Rattus norvegicus. Kind of data set: Cardioprotective activity in Sprague-Dawley rat assessed as effect on cardiac output in sprague-dawley rat at 0.2 micromol/kg, sc after 3 hrs by echocardiography. It is filed as functional, organism-based. The following applies: dose 0.2 µmol/kg.

Consider two compounds from ChEMBL document CHEMBL5038644 (J Med Chem, 2022).

Each structure is given as a SMILES string. Active and inactive are the calls of the source. The rule behind the calls is not given here.

For orientation: Emax means the greatest response seen or fitted, relative to the assay's reference. A word on the EC50: it is the concentration needed to bring the measured effect to its halfway point. For `CCCC[C@H](NC(=O)[C@@H]1CCCN1C(=O)CNC(=O)[C@H](CCCCN)NC(=O)[C@@H]1CCCC[C@H](NC(=O)[C@H](CCCNC(=N)N)NC(=O)[C@@H]2CCC(=O)N2)C(=O)N[C@@H](CCCNC(=N)N)C(=O)N[C@@H](CC(C)C)C(=O)N[C@@H](CO)C(=O)N1)C(=O)N1CCC[C@H]1C(=O)N[C@@H](Cc1ccccc1)C(=O)O`, the results for the maximal effect (Emax) in [1], in data set [2] and in data set [3] were 75%, 100% and 102%, respectively. In addition, the EC50 in data set [4] came to 63 nM.
Usually half-life stands for how long it takes for the measured level to halve. Broadly, the AUC is the area under the concentration-time curve, a measure of exposure. A high value points to high exposure. For `CC(C)C[C@@H]1NC(=O)[C@H](CCCNC(=N)N)NC(=O)[C@@H](N)C/C=C\C[C@@H](C(=O)N[C@@H](CCCCN)C(=O)NCC(=O)N2CCC[C@H]2C(=O)N[C@H](Cc2ccc3ccccc3c2)C(=O)O)NC(=O)[C@H](CO)NC1=O`, the Activity worked out at 22% in [5], 16% in data set [7], 22% in [9] and 17% in [11]. For the same compound, the half-life in [6] is more than 24 h. Further, the outcome in [8] and in [14] was Active. In addition, the results for the Emax in data set [1], in data set [2] and in data set [3] were 55%, 40% and 105%, respectively. In [10], this compound came in with an AUC of 8.8 mg·min/mL. Besides, in [12], the outcome was inactive. The Stability entry in data set [13] is on record as “Stable”.
